According to patent US20080187935A1, “Homo and Heterodimer Proteins of the Abcg Family, Methods For Detection and Screening Modulators Thereof” (priority 2004, published 2008):

Tests used:
[1] = molecular target: T1, human ABCG1 (Homo sapiens, UniProt P45844); assay: vanadate-sensitive ATPase activity of ABCG1 in isolated Sf9 membranes; assay type: biochemical; conditions: for effect on ABCG1 ATPase activity (in words): Sf9 membranes, 3.3 mM MgATP
T1 construct: made in house; host or cells: Sf9 insect cells (baculovirus), isolated membranes
Method: (§1) Recombinant baculoviruses carrying transporter cDNA were generated with BaculoGold Transfection Kit (Pharmingen), in accordance with the manufacturer's protocol. The titer of virus supernatants were determined in order to express the same amount of each proteins, Sf9 (Spodoptera frugiperda ovarian) cells (Invitrogen) were infected and cultured according to the procedures described previously (19). Briefly, about 3×10^7 cells were infected with 3 ml of virus supernatant in case of homodimer expression and 1.5-1.5 ml of virus supernatants in case of heterodimer expression. The virus-infected Sf9 cells were cultured in T150 culture flasks with 30 ml of medium for the times indicated. The cells were harvested by scraping them into Tris-mannitol buffer (50 mM Tris, pH 7.0, with HCl, containing 300 mM mannitol and 0.5 mM phenylmethylsulfonyl fluoride).
For membrane preparation the cells were lysed and homogenized using a glass-Teflon tissue homogenizer in TMEP (50 mM Tris, pH 7.0, with HCl, containing 50 mM mannitol, 2 mM EGTA-Tris, 10 µg/ml leupeptin, 8 µg/ml aprotinin, 0.5 mM phenylmethylsulfonyl fluoride, and 2 mM dithiothreitol), and the undisrupted cells and nuclear debris were removed by centrifugation at 500×g for 10 min. The supernatant fluid was then centrifuged for 60 min at 100,000×g and the pellet containing the membranes resuspended in TMEP at a protein concentration of 2-3 mg/ml. All procedures were carried out at 4° C., and the membranes were stored at −70° C.
(§2) The ATPase activity of the isolated Sf9 cell membranes was estimated by measuring inorganic phosphate liberation. Membrane suspensions (about 20 μg of membrane protein, as determined by a modified Lowry method) were incubated at 37° C. for 20-min in 0.15 ml of a medium containing 40 mM MOPS-Tris (pH 7.0), 0.5 mM EGTA-Tris (pH 7.0), 2 mM dithiothreitol, 50 mM KCl, 1 mM ouabain and 5 mM sodium azide, and the ATPase reaction was started by the addition of 3.3 mM MgATP. The indicated drugs (obtained from Sigma) were added in dimethyl sulfoxide. The final concentration of dimethyl sulfoxide in the assay medium was 1%. […] The reactions were stopped by the addition of 0.1 ml of 5% SDS solution and the amount of inorganic phosphate determined immediately. Inorganic phosphate was measured by colorimetric reaction (19). The points plotted in the figures indicate the means of triplicate determinations.

[2] = molecular target: T2, human ABCG4 (Homo sapiens, UniProt Q9H172); assay: vanadate-sensitive ATPase activity of ABCG4 in isolated Sf9 membranes; assay type: biochemical
T2 construct: made in house; host or cells: Sf9 insect cells (baculovirus), isolated membranes; cDNA from I.M.A.G.E. clone 1537140
Method: Recombinant baculoviruses carrying transporter cDNA were generated with BaculoGold Transfection Kit (Pharmingen), in accordance with the manufacturer's protocol. The titer of virus supernatants were determined in order to express the same amount of each proteins, Sf9 (Spodoptera frugiperda ovarian) cells (Invitrogen) were infected and cultured according to the procedures described previously (19). Briefly, about 3×10^7 cells were infected with 3 ml of virus supernatant in case of homodimer expression and 1.5-1.5 ml of virus supernatants in case of heterodimer expression. The virus-infected Sf9 cells were cultured in T150 culture flasks with 30 ml of medium for the times indicated. […] The supernatant fluid was then centrifuged for 60 min at 100,000×g and the pellet containing the membranes resuspended in TMEP at a protein concentration of 2-3 mg/ml. All procedures were carried out at 4° C., and the membranes were stored at −70° C. The ATPase activity of the isolated Sf9 cell membranes was estimated by measuring inorganic phosphate liberation. […] The indicated drugs (obtained from Sigma) were added in dimethyl sulfoxide. The final concentration of dimethyl sulfoxide in the assay medium was 1%. […] The reactions were stopped by the addition of 0.1 ml of 5% SDS solution and the amount of inorganic phosphate determined immediately. Inorganic phosphate was measured by colorimetric reaction (19). […]

[3] = molecular target: T3, ABCG1/ABCG4 (Homo sapiens, UniProt P45844+Q9H172); assay: ATPase activity of co-expressed ABCG1/ABCG4 in Sf9 membranes; assay type: biochemical; conditions: various concentrations, data not shown
T3 construct: made in house; host or cells: Sf9 insect cells co-infected with both baculoviruses, isolated membranes
Method: as §1, with “The cells were harvested by scraping them into Tris-mannitol buffer (50 mM Tris, pH 7.0, with HCl, containing 300 mM mannitol and 0.5 mM phenylmethylsulfonyl fluoride).” left out
as §2, with “MgATP.” for “MgATP. The indicated drugs (obtained from Sigma) were added in dimethyl sulfoxide. The final concentration of dimethyl sulfoxide in the assay medium was 1%.”, “The points plotted in the figures indicate the means of triplicate determinations.” left out

[4] = molecular target: T4, ABCG2R482G (Homo sapiens, UniProt Q9UNQ0, R482G); conditions: Özvegy C et al., 2001, cited from earlier work
T4 construct: host or cells: Sf9 membranes
T4 sequence (Q9UNQ0 1-655 R482G): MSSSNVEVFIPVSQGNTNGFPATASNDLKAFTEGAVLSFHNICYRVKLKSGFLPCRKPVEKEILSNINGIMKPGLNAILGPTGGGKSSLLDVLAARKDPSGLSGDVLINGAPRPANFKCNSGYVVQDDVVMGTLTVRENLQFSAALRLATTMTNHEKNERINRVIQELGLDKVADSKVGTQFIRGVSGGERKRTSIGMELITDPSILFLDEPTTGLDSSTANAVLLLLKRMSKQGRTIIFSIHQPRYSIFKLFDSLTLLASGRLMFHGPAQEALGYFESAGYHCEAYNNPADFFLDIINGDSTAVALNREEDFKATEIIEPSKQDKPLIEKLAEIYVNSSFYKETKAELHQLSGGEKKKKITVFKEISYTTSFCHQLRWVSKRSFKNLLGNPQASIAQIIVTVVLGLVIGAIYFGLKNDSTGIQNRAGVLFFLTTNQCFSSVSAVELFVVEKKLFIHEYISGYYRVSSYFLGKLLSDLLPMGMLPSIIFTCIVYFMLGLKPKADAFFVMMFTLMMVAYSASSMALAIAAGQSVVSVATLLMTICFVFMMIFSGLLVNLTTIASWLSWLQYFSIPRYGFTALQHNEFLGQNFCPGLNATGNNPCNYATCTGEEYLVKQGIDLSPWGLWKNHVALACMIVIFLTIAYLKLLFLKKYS

[5] = molecular target: T5, ABCG1K124M (Homo sapiens, UniProt P45844, K124M); assay: ATPase activity of catalytic site mutant ABCG1K124M in Sf9 membranes; assay type: biochemical; conditions: data not shown
T5 construct: made in house; host or cells: Sf9 insect cells (baculovirus), isolated membranes
Method: as §1, with “The cells were harvested by scraping them into Tris-mannitol buffer (50 mM Tris, pH 7.0, with HCl, containing 300 mM mannitol and 0.5 mM phenylmethylsulfonyl fluoride).” left out
as §2, with “MgATP.” for “MgATP. The indicated drugs (obtained from Sigma) were added in dimethyl sulfoxide. The final concentration of dimethyl sulfoxide in the assay medium was 1%.”, “The points plotted in the figures indicate the means of triplicate determinations.” left out

T2 sequence (Q9H172 whole entry): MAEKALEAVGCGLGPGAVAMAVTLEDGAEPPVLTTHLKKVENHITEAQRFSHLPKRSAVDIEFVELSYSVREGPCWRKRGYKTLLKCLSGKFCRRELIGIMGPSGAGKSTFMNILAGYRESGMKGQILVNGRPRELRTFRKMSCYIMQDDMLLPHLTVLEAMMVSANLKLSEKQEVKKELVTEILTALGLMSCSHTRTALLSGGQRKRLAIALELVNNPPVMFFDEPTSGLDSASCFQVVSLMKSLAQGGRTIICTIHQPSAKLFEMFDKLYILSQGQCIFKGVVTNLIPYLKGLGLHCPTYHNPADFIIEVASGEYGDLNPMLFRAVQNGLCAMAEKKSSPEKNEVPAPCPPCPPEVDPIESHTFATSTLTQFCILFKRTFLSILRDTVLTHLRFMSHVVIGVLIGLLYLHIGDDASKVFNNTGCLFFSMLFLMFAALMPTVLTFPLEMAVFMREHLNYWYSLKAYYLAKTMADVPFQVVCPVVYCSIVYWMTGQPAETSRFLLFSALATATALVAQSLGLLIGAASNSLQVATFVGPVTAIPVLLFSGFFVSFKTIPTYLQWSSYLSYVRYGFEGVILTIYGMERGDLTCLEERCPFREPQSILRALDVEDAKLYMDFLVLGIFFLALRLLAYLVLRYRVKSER

## Nc1c(O)cccc1C(=O)C[C@H](N)C(=O)O [3-OH kynurenine, 3-OH-kynurenine]
[1]
  effect on ABCG1 ATPase activity (in words): could not detect a change in activity
[2]
  effect on ABCG4 ATPase activity (in words): could not detect a change in activity
[3]
  effect on ATPase activity of co-expressed ABCG1/ABCG4 (in words): could not detect a change in activity

## Nc1ncnc2c1ncn2[C@@H]1O[C@H](COP(=O)(O)OP(=O)(O)OP(=O)(O)O)[C@@H](O)[C@H]1O [ATP]
[1]; with or without 100 μM rhodamine123, read-out: Km for ATP
  Km: ~500 µM
[4]; read-out: Km for ATP
  Km: ~600 µM

## NC(=NCc1ccccc1)NC(=O)c1nc(Cl)c(N)nc1N [Benzamil, benzamil]
[1]; inhibition of ABCG1 ATPase activity
  Ki: ~0.5 µM

## COc1ccc2c3c([nH]c2c1)[C@H](CC(C)C)N1C(=O)[C@H](CCC(=O)OC(C)(C)C)NC(=O)[C@@H]1C3 [Ko143]
[1]
  effect on ABCG1 ATPase activity (in words): no effect

## N[C@@H](Cc1cc(I)c(Oc2cc(I)c(O)c(I)c2)c(I)c1)C(=O)O [L-thyroxine]
[1]
  effect on ABCG1 ATPase activity (in words): inhibited ABCG1

## cyclosporin A
[1]
  effect on ABCG1 ATPase activity (in words): inhibited ABCG1 ATPase activity at low concentrations

## rhodamine123
[1]; 20 μM rhodamine123
  increase of ATPase activity of ABCG1: increased almost two fold
[1]; ABCG1 co-expressed with β-Gal, 100 μM rhodamine123, units = nanomoles Pi/mg membrane protein/min, basal 19.2±1.24, SEM, n=3
  rhodamine123 stimulated ATPase activity: 33.6±0.65 units
[1]
  effect on ABCG1 ATPase activity (in words): substantially stimulate
[1]; stimulation of ABCG1 ATPase activity, read-out: Kact
  EC50: ~10 µM
[2]
  effect on ABCG4 ATPase activity (in words): no effect
[5]
  effect on ABCG1K124M ATPase activity (in words): negligible
[4]
  stimulation of ABCG2R482G mutant ATPase activity: about 1.4 fold
